Series [1] deals with Caco2 intestinal cell model. The following applies: Totterman et al. 1997, Ono et al. 2001; cited from earlier work.
The next series deals with Caco2 cells. As to the kind of experiment: In vitro uptake of CoQ-10 in Caco2 cells. The following applies: 100 μg CoQ-10/flask, sum of reduced and oxidized forms, control = endogenous level. The series is classed as in vitro ADME, human. Here is the method:
The cellular uptake of the CoQ-10 from the cyclodextrin complexes was determined in vitro in model cell culture systems. For example, the uptake was determined using an in vitro Caco2 intestinal cell culture model indicative of in vivo intestinal absorption. This cell line has been used as a model system to examine the selective characteristics of intestinal absorption of compounds, such as vitamin E (Traber et al., 1990), retinol, beta lactoglobulin, palmitic acid (Puyol et al., 1995), carotenoids (Garrett et al., 1999), and polyamines (Turchanowa et al., 2001). […] CoQ-10 incorporated into mixed micelles was used for comparison.
The uptake of CoQ-10 from the cyclodextrin complex dried by different methods was compared to commercially available CoQ-10 powder (99% pure, used in hard capsules) and CoQ-10 powder incorporated into mixed micelles, simulating the digestive process.
The mixed micelles were prepared by the method of Garrett et al. (1999) using sodium taurocholate (bile salt), mono-acylglycerol, oleic acid, phosphatidyl choline, lysophosphatidylcholine, and CoQ-10 in phosphate buffered saline (PBS). The CoQ-10/cyclodextrin complexes were dispersed in PBS. The stock solutions contained 30 mg CoQ-10/10 ml.
The cellular uptake of CoQ-10 as a function of media concentration and exposure time was determined based on the method of Garrett et al. (1999). Caco-2 (ATCC, Rockville, Md.) cells were maintained in high glucose DMEM with 15 mM HEPES and 10% heat inactivated fetal bovine serum, nonessential amino acids, glutamine, and pyruvate in a humidified atmosphere at 5% CO2 and 37° C. The cells were allowed to reach confluency (5–6 days after subculture) and differentiate (14 days) in 25 cm^2 flasks before the start of the experiment.
The stock test samples were diluted in the culture medium for the experiment. The monolayers were washed with PBS before adding the test samples at known CoQ-10 concentration (100 μg/flask). […] The cultures were incubated as before and the CoQ-10 uptake was terminated at indicated times. […] The chromatograms were monitored at 275 nm.

In the case of dimethyl β-cyclodextrin, the “Cytotoxicity / effect on Caco2 cells” value in series [1] was “dose dependent cytotoxicity”. As for maltosyl-α-cyclodextrin, the “Cytotoxicity / effect on Caco2 cells” value in series [1] was “less toxic as compared to α-cyclodextrin”. With `COC1=C(OC)C(=O)C(C/C=C(\C)CC/C=C(\C)CC/C=C(\C)CC/C=C(\C)CC/C=C(\C)CC/C=C(\C)CC/C=C(\C)CC/C=C(\C)CC/C=C(\C)CCC=C(C)C)=C(C)C1=O` [CoQ-10 Powder, Coenzyme Q-10], the “Cellular Total CoQ-10 (Treated/Control)” value in the series with Caco2 cells (5 hr incubation), with Caco2 cells (10 hr incubation) and in the series with Caco2 cells (24 hr incubation) was 1.0 each time. `OC[C@H]1O[C@@H]2O[C@H]3[C@H](O)[C@@H](O)[C@@H](O[C@H]4[C@H](O)[C@@H](O)[C@@H](O[C@H]5[C@H](O)[C@@H](O)[C@@H](O[C@H]6[C@H](O)[C@@H](O)[C@@H](O[C@H]7[C@H](O)[C@@H](O)[C@@H](O[C@H]8[C@H](O)[C@@H](O)[C@@H](O[C@H]9[C@H](O)[C@@H](O)[C@@H](O[C@H]1[C@H](O)[C@H]2O)O[C@@H]9CO)O[C@@H]8CO)O[C@@H]7CO)O[C@@H]6CO)O[C@@H]5CO)O[C@@H]4CO)O[C@@H]3CO` [γ-Cyclodextrin]: in series [1], the “Cytotoxicity / effect on Caco2 cells” value was “least effect even at a relatively high concentration of 150 mM”.

Source of the values: patent publication US7030102B1, “Highly bioavailable coenzyme Q-10 cyclodextrin complex” (BioActives, LLC, priority 2003, dated 2006).
